Earlier results, collected in patent US6845777B2, “Composition to reduce or quit smoking addiction” (priority 2001, dated 2005).

What was measured:
[1] = average adult

## CN1CCCC1c1cccnc1 (centres unmarked) [Nicotine]
[1]
  lethal unit dose: about 60 mg
In vivo
  nicotine from the intestine that reaches the bloodstream in a not metabolized form: about 30%
  peak levels in the arteries: approximately 40 micro-grams per milliliter of blood
  plasma half-life: 30 min and 120 min
Inhalation of tobacco smoke
  nicotine inhaled from a cigarette that is absorbed into the bloodstream: ≤ 90%
